“And” between values parts separate entries of the source, which are not always exact repeats. Identical values can stand only once.
Test system: pigeon
Experiment: Screening experiment with pigeon on the repellency of treated maize seeds (two-bowl choice, treated vs untreated maize)
Type: in vivo
Settings: for Food consumption of untreated maize (U), Day 1 / Food consumption of untreated maize (U), Day 2: untreated bowl beside treated bowl; for Mean food consumption of untreated maize per group and per day, day 0 / Mean food consumption of untreated maize per group and per day, day 1 / Mean food consumption of untreated maize per group and per day, day 3 / Food consumption of untreated maize (U), Mean/group / Food consumption of untreated maize (U), Mean/birds: untreated bowl; for Food consumption of untreated maize (U), Mean/group / Food consumption of treated maize (T), Mean/group: mean of 3 pigeons over Day 0-2; for Food consumption of untreated maize (U), Day 0: untreated bowl (40 g) offered beside treated bowl
Procedure: Screening Experiment with Pigeon on the Repellency of Maize Seeds Treated with Different Thiram and Propineb Formulations
15 singly housed pigeons were acclimated to maize as food source over a couple of days. From day—3 to day—1 they received exclusively untreated maize (40 g/bird). Food consumption was determined (see Table 1 below). All birds accepted maize seed as food. The different groups behaved similarly:
Food was offered in 2 bowls, one with treated, the other with untreated maize. The position of the two bowls was changed from day to day as well as during the day. Food consumption was again measured (see Table 2 below)
Group 1 (Aviary 1 to 3): Thiram 160 g/dt
Group 2 (Aviary 4 to 6): Thiram 80 g/dt
Group 3 (Aviary 7 to 9): Propineb160 g/dt
Group 4 (Aviary 10 to 12):Propineb 80 g/dt

[1] = 80 g/dt group, single pigeon, Day 1
[2] = 80 g/dt group, mean per bird over Day 0-2

| Compound | Food consumption of untreated maize (U), Day 1 [1] | Food consumption of untreated maize (U), Day 2 (80 g/dt group, single pigeon) | Mean food consumption of untreated maize per group and per day, day 0 (80 g/dt group) [g] | Mean food consumption of untreated maize per group and per day, day 1 (80 g/dt group) [g] | Mean food consumption of untreated maize per group and per day, day 3 (80 g/dt group) [g] | Food consumption of untreated maize (U), Mean/group (80 g/dt group) [g] | Food consumption of untreated maize (U), Mean/birds [2] | Food consumption of untreated maize (U), Day 2 (160 g/dt group, single pigeon) | Mean food consumption of untreated maize per group and per day, day 0 (160 g/dt group) [g] | Mean food consumption of untreated maize per group and per day, day 1 (160 g/dt group) [g] | Mean food consumption of untreated maize per group and per day, day 3 (160 g/dt group) [g] | Food consumption of untreated maize (U), Mean/group (160 g/dt group) [g] | Mean food consumption of treated maize per group and per day, day 0 (maize treated at 80 g/dt) [g] | Mean food consumption of treated maize per group and per day, day 1 (maize treated at 80 g/dt) [g] | Mean food consumption of treated maize per group and per day, day 3 (maize treated at 80 g/dt) [g] | Food consumption of treated maize (T), Mean/group (maize treated at 80 g/dt) [g] | Mean food consumption of treated maize per group and per day, day 0 (maize treated at 160 g/dt) [g] | Mean food consumption of treated maize per group and per day, day 1 (maize treated at 160 g/dt) [g] | Mean food consumption of treated maize per group and per day, day 3 (maize treated at 160 g/dt) [g] | Food consumption of treated maize (T), Mean/group (maize treated at 160 g/dt) [g] | also measured |
| --- | --- | --- | --- | --- | --- | --- | --- | --- | --- | --- | --- | --- | --- | --- | --- | --- | --- | --- | --- | --- | --- |
| CN(C)C(=S)SSC(=S)N(C)C [Thiram, reference compound] | 11.8 g and 18.4 g and 18.2 g | 14.5 g and 19.3 g and 19.7 g | 16.4 | 16.1 | 17.8 | 16.8 | 13.6 g and 17.8 g and 18.9 g | 14.5 g and 23.4 g and 23.0 g | 16.9 | 18.5 | 20.3 | 18.6 | 0.9 | 0.2 | 1.1 | 0.7 | 6.0 | 5.3 | 2.8 | 4.6 | Food consumption of untreated maize (U), Day 0 (80 g/dt seed treatment group, single pigeon (aviary), Day 0): 14.4 g and 15.8 g and 18.9 g; Food consumption of treated maize (T), Mean/birds (maize treated at 160 g/dt, mean per bird over Day 0-2): 0.0 g |
| Propineb | 17.5 g and 23.2 g and 20.6 g | 25.9 g and 27.5 g and 28.6 g | 14.1 | 20.4 | 27.3 | 20.6 | 20.1 g and 23.6 g and 18.0 g | 26.1 g and 19.9 g and 28.3 g | 22.6 | 24.8 | 24.8 | 24.4 | 2.8 | 2.1 | 0.0 | 1.7 | 0.0 | 0.6 | 0.0 | 0.2 | Food consumption of untreated maize (U), Day 1 (160 g/dt group, single pigeon, Day 1): 24.6 g and 19.5 g and 30.2 g; Food consumption of untreated maize (U), Mean/birds (160 g/dt group, mean per bird over Day 0-2): 24.6 g and 21.3 g and 26.2 g; Food consumption of untreated maize (U), Day 0 (160 g/dt seed treatment group, single pigeon (aviary), Day 0): 23.1 g and 24.6 g and 20.0 g; Bird repellent activity compared with Thiram (compared at the registered rate of Thiram, pigeon, treated maize seed): substantially better activity than Thiram; Food consumption of treated maize (T), Day 1 (maize treated at 80 g/dt, choice with untreated, single pigeon, Day 1): 2.9 g and 1.7 g and 1.8 g; Food consumption of treated maize (T), Day 2 (maize treated at 80 g/dt, choice with untreated, single pigeon): 0.0 g; Food consumption of treated maize (T), Day 0 (maize treated at 160 g/dt, 40 g offered beside 40 g untreated, single pigeon (aviary), Day 0): 0.0 g; Food consumption of treated maize (T), Day 2 (maize treated at 160 g/dt, choice with untreated, single pigeon): 0.0 g |

— US8586628B2, “Use of Propineb as bird repellent” (Bayer Cropscience AG, priority 2009, dated 2013)
